Laboratory results reported in patent US10174037B2, “Dihydropyrazolopyrimidinone compounds as PDE2 inhibitors” (Merck Sharp & Dohme Corp., priority 2015, dated 2019).

molecular target: Rhesus PDE2A3 (Macaca mulatta, UniProt B3VTJ2); assay: PDE2 fluorescence polarization (IMAP FP) assay, rhesus PDE2A3; assay type: biochemical, rhesus macaque; conditions: Lab B, read-out: Rhesus PDE2 Ki (nM) Lab B
Method: A Labcyte Echo 555 (Labcyte, Sunnyvale, Calif.) is used to dispense 200 nL from each well of the titration plate to the 384 well assay plate. Ten microliters of a solution of enzyme (1/2000 final dilution from aliquots; sufficient to produce 20% substrate conversion) was added to the assay plate. Next 10 uL of a separate solution of the substrate FAM-labeled cAMP (50 nM final concentration product # R7506 from Molecular Devices) and the activator cGMP (1 uM final concentration), prepared in the assay buffer (10 mM Tris HCl, pH 7.2, 10 mM MgCl2, 0.05% NaN3 0.01% Tween-20, and 1 mM DTT) was added to the assay plate and shaken to mix. The reaction is allowed to proceed at room temperature for 60 minutes. A binding solution is then made from the kit components, comprised of 80% Solution A, 20% Solution B and binding reagent at a volume of 1/600 the total binding solution. The enzymatic reaction is stopped by addition of 60 μL of the binding solution to each well of the assay plates and the plates are sealed and shaken for 30 seconds. The plate was incubated at room temperature for at least one hour prior to determining the fluorescence polarization (FP). The parallel and perpendicular fluorescence of each well of the plate was measured using a Tecan Genios Pro plate reader (Tecan, Switzerland) or Perkin Elmer EnVision™ plate reader (Waltham, Mass.). Fluorescence polarization (mP) was calculated from the parallel (S) and perpendicular (P) fluorescence of each sample well and the analogous values for the median control well, containing only substrate (So and Po), using the following equation: Polarization (mP)=1000*(S/So−P/Po)/(S/So+P/Po).
Dose-inhibition profiles for each compound were characterized by fitting the mP data to a four-parameter equation given below.
An apparent (KM) for FAM-labeled cAMP of ˜10 uM was used.

Sequence of Rhesus PDE2A3 (B3VTJ2 1-941): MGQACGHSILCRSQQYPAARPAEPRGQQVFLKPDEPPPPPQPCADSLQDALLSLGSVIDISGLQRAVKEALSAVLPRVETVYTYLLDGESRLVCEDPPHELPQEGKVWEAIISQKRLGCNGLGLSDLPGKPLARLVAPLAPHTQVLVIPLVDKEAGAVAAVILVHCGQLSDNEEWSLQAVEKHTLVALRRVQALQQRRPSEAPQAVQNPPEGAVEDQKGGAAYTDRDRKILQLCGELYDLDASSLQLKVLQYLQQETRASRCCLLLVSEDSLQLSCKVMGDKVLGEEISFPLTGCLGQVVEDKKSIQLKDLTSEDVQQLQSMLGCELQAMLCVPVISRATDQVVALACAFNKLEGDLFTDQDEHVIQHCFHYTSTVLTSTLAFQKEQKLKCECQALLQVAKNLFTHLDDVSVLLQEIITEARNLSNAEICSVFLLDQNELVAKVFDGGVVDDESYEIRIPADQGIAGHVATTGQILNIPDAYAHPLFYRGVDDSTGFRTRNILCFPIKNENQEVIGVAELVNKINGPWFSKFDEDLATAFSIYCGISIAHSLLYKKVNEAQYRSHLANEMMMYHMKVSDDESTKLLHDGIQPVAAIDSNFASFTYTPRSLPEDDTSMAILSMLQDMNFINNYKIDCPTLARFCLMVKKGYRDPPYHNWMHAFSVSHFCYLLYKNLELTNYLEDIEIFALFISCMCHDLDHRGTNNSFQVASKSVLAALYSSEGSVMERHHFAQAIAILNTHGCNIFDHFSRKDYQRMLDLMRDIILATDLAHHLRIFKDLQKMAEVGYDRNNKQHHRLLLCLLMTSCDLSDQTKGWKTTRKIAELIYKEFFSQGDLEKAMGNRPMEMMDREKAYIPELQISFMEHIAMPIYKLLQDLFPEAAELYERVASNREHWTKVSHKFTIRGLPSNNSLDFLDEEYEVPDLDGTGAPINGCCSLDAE

Row | Compound | Ki
1 | CC(C)C(c1ccc(OC(F)(F)F)cc1)n1nc(CC(F)(F)F)c2c(=O)[nH]c(O)nc21 (single isomer, unassigned) [Example 232, (R)- or (S)-6-Hydroxy-1-(2-methyl-1-(4-(trifluoromethoxy)phenyl)propyl)-3-(2,2,2-trifluoroethyl)-1H-pyrazolo[3,4-d]pyrimidin-4(5H)-one] | 192 nM
2 | CC(C)C(c1ccc(OC(F)(F)F)cc1)n1nc(CC(F)(F)F)c2c(=O)[nH]c(O)nc21 (single isomer, unassigned) [Example 233, (S)- or (R)-6-Hydroxy-1-(2-methyl-1-(4-(trifluoromethoxy)phenyl)propyl)-3-(2,2,2-trifluoroethyl)-1H-pyrazolo[3,4-d]pyrimidin-4(5H)-one] | 132 nM
3 | CC(c1ccc(C(F)(F)F)c(F)c1)n1nc(CC(F)(F)F)c2c(=O)[nH]c(O)nc21 (single isomer, unassigned) [Example 234, (R)- or (S)-1-(1-(3-Fluoro-4-(trifluoromethyl)phenyl)ethyl)-6-hydroxy-3-(2,2,2-trifluoroethyl)-1H-pyrazolo[3,4-d]pyrimidin-4(5H)-one] | 180 nM
4 | CC(c1ccc(C(C)(C)C)cc1)n1nc(CC(F)(F)F)c2c(=O)[nH]c(O)nc21 (single isomer, unassigned) [Example 237, (S)- or (R)-1-(1-(4-tert-Butylphenyl)ethyl)-6-hydroxy-3-(2,2,2-trifluoroethyl)-1H-pyrazolo[3,4-d]pyrimidin-4(5H)-one] | 494 nM
5 | O=c1[nH]c(O)nc2c1c(CC(F)(F)F)nn2C(c1ccc(C(F)(F)F)c(F)c1)C1CC1 (single isomer, unassigned) [Example 239, (S)- or (R)-1-(Cyclopropyl(3-fluoro-4-(trifluoromethyl)phenyl)methyl)-6-hydroxy-3-(2,2,2-trifluoroethyl)-1H-pyrazolo[3,4-d]pyrimidin-4(5H)-one] | 166 nM
6 | CC(C)C(c1ccc(C(F)(F)F)cc1)n1nc(CC(F)(F)F)c2c(=O)[nH]c(O)nc21 (single isomer, unassigned) [Example 241, (S)- or (R)-6-Hydroxy-1-(2-methyl-1-(4-(trifluoromethyl)phenyl)propyl)-3-(2,2,2-trifluoroethyl)-1H-pyrazolo[3,4-d]pyrimidin-4(5H)-one] | 199 nM
7 | O=c1[nH]c(O)nc2c1c(CC(F)(F)F)nn2C(c1ccc(OC(F)(F)F)cc1)C1CC1 (single isomer, unassigned) [Example 242, (R)- or (S)-1-(Cyclopropyl(4-(trifluoromethoxy)phenyl)methyl)-6-hydroxy-3-(2,2,2-trifluoroelhyl)-1H-pyrazolo[3,4-d]pyrimidin-4(5H)-one] | 150 nM
8 | O=c1[nH]c(O)nc2c1c(CC(F)(F)F)nn2C(c1ccc(OC(F)(F)F)cc1)C1CC1 (single isomer, unassigned) [Example 243, (S)- or (R)-1-(Cyclopropyl(4-(trifluoromethoxy)phenyl)methyl)-6-hydroxy-3-(2,2,2-trifluoroelhyl)-1H-pyrazolo[3,4-d]pyrimidin-4(5H)-one] | 191 nM
9 | CC1(C(c2ccc(C(F)(F)F)cc2)n2nc(CC(F)(F)F)c3c(=O)[nH]c(O)nc32)CC1 (single isomer, unassigned) [Example 245, (S)- or (R)-6-Hydroxy-l-((1-methylcyclopropyl)(4-(trifluoromethyl)phenyl)methyl)-3-(2,2,2-trifluoroethyl)-1H-pyrazolo[3,4-d]pyrimidin-4(5H)-one] | 698 nM
10 | CC(C)(C)c1ccc(C(C2CC2)n2nc(CC(F)(F)F)c3c(=O)[nH]c(O)nc32)cc1 (single isomer, unassigned) [Example 251, (S)- or (R)-1-((4-tert-Butylphenyl)(cyclopropyl)methyl)-6-hydroxy-3-(2,2,2-trifluoroethyl)-1H-pyrazolo[3,4-d]pyrimidin-4(5H)-one] | 363 nM
11 | O=c1[nH]c(O)nc2c1c(CC(F)(F)F)nn2C(c1ccc(OC(F)(F)F)c(F)c1)C1CC1 (single isomer, unassigned) [Example 253, (S)- or (R)-1-(Cyclopropyl(3-fluoro-4-(trifluoromethoxy)phenyl)methyl)-6-hydroxy-3-(2,2,2-trifluoroethyl)-1H-pyrazolo[3,4-d]pyrimidin-4(5H)-one] | 120 nM
12 | CC(C)C(c1ccc(C(F)(F)F)c(F)c1)n1nc(CC(F)(F)F)c2c(=O)[nH]c(O)nc21 (single isomer, unassigned) [Example 259] | 148 nM
13 | CC(C)C(c1ccc(C(C)(C)C)cc1)n1nc(CC(F)(F)F)c2c(=O)[nH]c(O)nc21 (single isomer, unassigned) [Example 261, (S)- or (R)-1-(1-(4-tert-Butylphenyl)-2-methylpropyl)-6-hydroxy-3-(2,2,2-trifluoroethyl)-1H-pyrazolo[3,4-d]pyrimidin-4(5H)-one] | ~1400 nM
14 | CC(C)(C)C(c1ccc(C(F)(F)F)cc1)n1nc(CC(F)(F)F)c2c(=O)[nH]c(O)nc21 (single isomer, unassigned) [Example 262, (R)- or (S)-1-(2,2-Dimethyl-1-(4-(trifluoromethyl)phenyl)propyl)-6-hydroxy-3-(2,2,2-trifluoroethyl)-1H-pyrazolo[3,4-d]pyrimidin-4(5H)-one] | 334 nM
15 | CC(C)(C)C(c1ccc(C(F)(F)F)cc1)n1nc(CC(F)(F)F)c2c(=O)[nH]c(O)nc21 (single isomer, unassigned) [Example 263, (S)- or (R)-1-(2,2-Dimethyl-1-(4-(trifluoromethyl)phenyl)propyl)-6-hydroxy-3-(2,2,2-trifluoroethyl)-1H-pyrazolo[3,4-d]pyrimidin-4(5H)-one] | 5890 nM
16 | CC(C)C(c1ccc(OC(F)(F)F)c(F)c1)n1nc(CC(F)(F)F)c2c(=O)[nH]c(O)nc21 (single isomer, unassigned) [Example 264, (R)- or (S)-1-(1-(3-Fluoro-4-(trifluoromethoxy)phenyl)-2-methylpropyl)-6-hydroxy-3-(2,2,2-trifluoroethyl)-1H-pyrazolo[3,4-d]pyrimidin-4(5H)-one] | 600 nM
17 | CC(C)C(c1ccc(OC(F)(F)F)c(F)c1)n1nc(CC(F)(F)F)c2c(=O)[nH]c(O)nc21 (single isomer, unassigned) [Example 265, (S)- or (R)-1-(1-(3-Fluoro-4-(trifluoromethoxy)phenyl)-2-methylpropyl)-6-hydroxy-3-(2,2,2-trifluoroethyl)-1H-pyrazolo[3,4-d]pyrimidin-4(5H)-one] | 276 nM
18 | CC(c1ccc(C(F)(F)F)cc1)n1nc(C(F)(F)C(F)(F)F)c2c(=O)[nH]c(O)nc21 (single isomer, unassigned) [Example 267, (S)- or (R)-6-Hydroxy-3-(perfluoroethyl)-1-(1-(4-(trifluoromethyl)phenyl)ethyl)-1H-pyrazolo[3,4-d]pyrimidin-4(5H)-one] | 448 nM
19 | CC(c1ccc(OC(F)(F)F)cc1)n1nc(C(F)F)c2c(=O)[nH]c(O)nc21 (single isomer, unassigned) [Example 273, (R)- or (S)-3-(Difluoromethyl)-6-hydroxy-1-(1-(4-(trifluoromethoxy)phenyl)ethyl)-1H-pyrazolo[3,4-d]pyrimidin-4(5H)-one] | 113 nM
20 | O=c1[nH]c(O)nc2c1c(C(F)F)nn2C(c1ccc(C(F)(F)F)cc1)C1CC1 (single isomer, unassigned) [Example 280, (S)- or (R)-1-(Cyclopropyl(4-(trifluoromethyl)phenyl)methyl)-3-(difluoromethyl)-6-hydroxy-1H-pyrazolo[3,4-d]pyrimidin-4(5H)-one] | 85 nM
21 | CC(C)(C)C(c1ccc(C(F)(F)F)cc1)n1nc(C(F)F)c2c(=O)[nH]c(O)nc21 (single isomer, unassigned) [Example 283, (R)- or (S)-3-(Difluoromethyl)-1-(2,2-dimethyl-1-(4-(trifluoromethyl)phenyl)propyl)-6-hydroxy-1H-pyrazolo[3,4-d]pyrimidin-4(5H)-one] | ~1510 nM
22 | CC(C)(C)C(c1ccc(C(F)(F)F)cc1)n1nc(C(F)F)c2c(=O)[nH]c(O)nc21 (single isomer, unassigned) [Example 284, (S)- or (R)-3-(Difluoromethyl)-1-(2,2-dimethyl-1-(4-(trifluoromethyl)phenyl)propyl)-6-hydroxy-1H-pyrazolo[3,4-d]pyrimidin-4(5H)-one] | 206 nM
23 | CCC(c1ccc(C(F)(F)F)cc1)n1nc(C(F)F)c2c(=O)[nH]c(O)nc21 (single isomer, unassigned) [Example 285, (R)- or (S)-3-(Difluoromethyl)-6-hydroxy-1-(1-(4-(trifluoromethyl)phenyl)propyl)-1H-pyrazolo[3,4-d]pyrimidin-4(5H)-one] | 232 nM
24 | N#CCc1nn(C(c2ccc(C(F)(F)F)cc2)C2CC2)c2nc(O)[nH]c(=O)c12 (single isomer, unassigned) [Example 297] | 207 nM
25 | CC(c1ccc(OC(F)(F)F)c(F)c1)n1nc(CC#N)c2c(=O)[nH]c(O)nc21 (single isomer, unassigned) [Example 300, (S)- or (R)-2-(1-(1-(3-Fluoro-4-(trifluoromethoxy)phenyl)ethyl)-6-hydroxy-4-oxo-4,5-dihydro-1H-pyrazolo[3,4-d]pyrimidin-3-yl)acetonitrile] | 101 nM
